Values quoted from earlier work as cited in patent publication US10858659B2, “Biosynthetic gene cluster of carrimycin” (SHENYANG FUYANG PHARMACEUTICAL TECHNOLOGY CO., LTD., priority 2015, dated 2020).

Assays:
[1] = in vivo

For Carrimycin, the in-vivo retention time is listed as “long”, the absolute bioavailability (in vivo) is listed as “high” and the elimination half-life (in vivo) is listed as “long”. The “tissue concentration compared with blood plasma concentration” value (in vivo) was “higher than blood plasma concentration”, the tissue distribution (in vivo) was “wide” and the tissue penetrability (in vivo) was “high”. For the same substance, the “oral administration absorption speed” value (in vivo, po) was “high”, the adverse reaction rate [1] was “low” and the injury to livers [1] was “little”. For the same substance, the safety [1] was “good”.
